≈ marks a conversion by molar mass, not a printed value. Some results are limits rather than exact numbers.

In data set [1] the test system is Trypanosoma cruzi. Description: Assay 2 Trypanosoma cruzi intracellular assay (infected Vero cells). The format is cell-based. The following applies: 72 h, read-out: pEC50 value against Trypanosoma cruzi (converted). As to the method: Compounds were dispensed into black 384-well assay plates (Corning) by acoustic dispensing (LabCyte ECHO). For potency determinations, ten-point one in three dilution curves were generated, with a top concentration of 50 μM. Vero cells were infected overnight with T. cruzi trypomastigotes in T225 tissue culture flasks at a multiplicity of infection of 5. Next, any remaining free trypomastigotes were washed away with serum free MEM media and the infected Vero cells were harvested by trypsinisation. The infected Vero cells were then plated into 384-well plates containing the compounds to be tested, at 4000 cells per well in MEM media with 1% FCS. After 72 h incubation at 37° C. in presence of 5% CO2, the plates were fixed with 4% formaldehyde for 20 minutes at room temperature and stained with 5 μg/ml Hoechst 33342. The plates were imaged on a Perkin Elmer Operetta high-content imaging system using a 20× objective. Images were analysed using the Columbus system (Perkin Elmer). The image analysis algorithm first identified the Vero nuclei followed by demarcation of the cytoplasm and identification of intracellular amastigotes. This algorithm reported mean number of parasites per Vero cell and total number of Vero cells.

In another data set the test system is Trypanosoma brucei. Description: Assay 3 Trypanosoma brucei cell growth inhibition assay. The data set is classed as cell-based. The following applies: T. b. brucei BSF427, 69 h + 4 h resazurin, maximum threshold 8.0, read-out: pEC50 value against Trypanosoma brucei (converted). As to the method: Measurement of the ability of the compounds to inhibit trypanosome (T. b. brucei, BSF427, VSG118) cell growth was performed using a modification of the cell viability assay previously described by Raz et al. (Raz B.; Iten M.; Grether-Buhler Y.; Kaminski R.; Brun R. The Alamar Blue assay to determine drug sensitivity of African trypanosomes (T. b. rhodesiense and T. b. gambiense) in vitro. Acta Trop. 1997, 68, 139-147). Compounds were dissolved in DMSO at a top concentration of 10 mM and serially diluted in half log steps to achieve a range of final assay concentrations of 50 μM to 0.5 nM. Compound at each concentration (200-fold final) was added to clear 96-well tissue culture plates in a volume of 1 μL. Then 2000 cells per well in relevant growth medium (HMI-9T for T. brucei, a modification of HMI-9 as described by Hurumi et al. (Hirumi H.; Hirumi K. Continuous cultivation of Trypanosoma brucei blood stream forms in a medium containing a low concentration of serum-protein without feeder cell-layers. J. Parasitol. 1989, 75, 985-989.) where 0.2 mM 2-mercaptoethanol was replaced with 0.056 mM thiolglycerol, and MEM with 10% FBS for MRC5) were then added to columns 1-11 of the plates in a volume of 199 μL. To column 12, 200 μL of medium was added to provide a no cells control. Plates were then incubated at 37° C. in an atmosphere of 5% CO2 for 69 h, before the addition of 20 μL of 500 μM rezasurin solution, and a further incubation period of 4 h. Plates were then read on a BioTek flx800 fluorescent plate reader, and percentage inhibition was compared to the maximum and minimum assay controls. Concentration effect curves were fitted using nonlinear regression using XLFit 4.2 and EC50 values determined.

The subject of data set [2] is Trypanosoma cruzi. Description: Assay 6 Trypanosoma cruzi intracellular assay (infected H9C2 cells). The data set is classed as cell-based. Conditions: H9c2, in Rattus norvegicus, 72 h, infected H9C2 rat cardiomyocytes, read-out: pEC50 value against Trypanosoma cruzi (converted). In short, it runs like this:
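Infected H9C2 rat cardiomyocytes (T. cruzi trypomastigotes, MOI 1, 18 h) plated at 2500 cells/well on compound, 11-point 1:3 curves from 50 μM top, 72 h at 37 °C in 2% FBS DMEM. Fixed, Draq5-stained, high-content imaged; algorithm counts parasites per cell, % infected cells and total host cells (cytotoxicity).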

The test system of the next data set is Leishmania donovani. Kind of data set: Assay 1 intramacrophage Leishmania donovani assay (potency readout). The format is cell-based. The following applies: amastigotes in PMA-treated THP-1 macrophages, 96 h, average number of amastigotes per cell, minimum threshold 4.3, read-out: pEC50 value against Leishmania donovani (converted). As to the method:
(§1) The intramacrophage Leishmania assay was performed using a modified version of the method described in De Rycker et al. (Antimicrob Agents Chemother. 2013 July; 57(7):2913-22. Comparison of a high-throughput high-content intracellular Leishmania donovani assay with an axenic amastigote assay. De Rycker M, Hallyburton I, Thomas J, Campbell L, Wyllie S, Joshi D, Cameron S, Gilbert I H, Wyatt P G, Frearson J A, Fairlamb A H, Gray D W.). Procedure: 350 nl of compound was pre-dispensed into 384 well sterile intermediary plates. For single point screening, amphotericin B was added to all wells of column 24 as a positive control (final concentration 2 μM) and DMSO to column 23. For potency determinations, ten-point, one in three dilution curves were created with the highest concentration being 50 μM and on each plate a control curve of amphotericin B was included. Controls were as follows: columns 11 and 12: DMSO, columns 23 and 24: amphotericin B (final concentration 2 μM). To the intermediary plates, 35 μl of THP-1 media was added and plates were shaken for >5 min to ensure complete mixing. THP-1 cells (8,000 per well, 50 μl) were plated into black clear-bottom 384 well plates (Corning) in presence of 20 nM PMA. After 20 min at RT, the plates were incubated at 37° C. under 5% CO2 in a humidified incubator for 75 h. The cells were then washed with […] sterile phosphate buffered saline (PBS) supplemented with 1 mM CaCl2, 0.5 mM MgCl2, 0.1% (w/v) bovine serum albumin (PBS-A) and amastigotes were added to all wells at a multiplicity of infection of 5 (40,000 amastigotes per well). After 40 min at RT, plates were returned to the incubator. Amastigotes were incubated in the presence of THP-1 macrophages for 16 h. Any remaining extracellular amastigotes were subsequently removed with an overflow wash of 1 mL PBS-A per well (wash buffer is being aspirated from the top of the well as it is being dispensed) followed by addition of 25 μl of the compound pre-dilutions using a Fluidx Ipette-pro pipetting station. The final dilution of each compound was 200-fold. Plates were incubated for 96 h and then washed (250 μl PBS-A) and fixed (4% (v/v) formaldehyde-PBS, 30 min, RT). After fixation, the wells were washed with 250 μl PBS, stained (10 μg/mL DAPI, 0.4 μg mL-1 HCS Cellmask Deep Red in PBS+0.1% (v/v) Triton X-100, 30 min, RT) and washed with 250 μl PBS. Finally, PBS+0.05% (v/v) thimerosal was added to the wells, the plates were sealed and imaged on a high-content microscope (GE IN Cell 2000) using a 10× objective. Image analysis was carried out with GE IN Cell Analyzer 1000 Workstation using the “Multi Target Analysis” module. Settings for segmentation were as follows: nuclei: minimum area: 142.384 μm2, sensitivity: 81, method: top-hat; cells: characteristic area: 2500 μm2, sensitivity: 60, method: multiscale top-hat; organelles (amastigotes): granule size 1-3, 3 scales, sensitivity: 90, detection in entire cell. For each well, i) THP-1 cell count (cytotoxicity readout) and ii) average number of amastigotes per cell (potency readout) were calculated, both in terms of pEC50 values.

Data set [3] in a line: Assay 4 solubility assay, ChemiLuminescent Nitrogen Detection (CLND). The data set is classed as physicochemical. The following applies: phosphate buffered saline, pH 7.4, aqueous buffer, kinetic from dmso stock, pH 7.4 PBS, from 10 mM DMSO stock, 1 h at room temperature. In short, it runs like this: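 Kinetic solubility: 10 mM DMSO stock diluted 5 µl into 100 µl pH 7.4 PBS, incubated 1 h at room temperature, then filtered. Filtrate quantified by HPLC with chemiluminescent nitrogen detection against ondansetron and caffeine standards; solubility in µM by linear-regression calibration.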

A short description of data set [4]: Assay 6 Trypanosoma cruzi intracellular assay, cytotoxicity against H9c2 cells. The following applies: rat, H9C2 cardiomyocytes infected with T. cruzi trypomastigotes, total number of H9C2 cells, minimum threshold 4.3, read-out: cytotoxicity against H9c2 cells, pEC50 (converted). The data set is classed as cell-based. As to the method:
Compounds were dispensed into black 384-well assay plates (Greiner) by acoustic dispensing (LabCyte ECHO). For potency determinations, eleven-point, one in three dilution curves were generated, with a top concentration of 50 μM. H9C2 rat cardiomyocytes cells were dispensed in T225 tissue culture flasks and after 4 hours they were infected during 18 hours with T. cruzi trypomastigotes in the same T225 tissue culture flasks at a multiplicity of infection of 1. Next, any remaining free trypomastigotes were washed away with PBS and the infected H9C2 cells were harvested by trypsinisation. The infected H9C2 cells were then plated into 384-well plates containing the compounds to be tested, at 2500 cells per well in DMEM media with 2% FBS, 1% Penicillin/Streptomocin, 2 mM L-Glutamine, 1 mM Na Pyruvate and 25 mM HEPES. After 72 h incubation at 37° C. in presence of 5% CO2, the plates were fixed and stained with 4% formaldehyde and 2 μM Draq5 for 3 hours at room temperature. The plates were imaged on a Perkin Elmer Opera high-content imaging system using a 20× air objective. Images were analysed using the Acapella building blocks system (Perkin Elmer). The image analysis algorithm first identified the H9C2 nuclei followed by demarcation of the cytoplasm and identification of intracellular amastigotes. This algorithm reported mean number of parasites per H9C2 cell, the percentage of infected H9C2 cells and the total number of H9C2 cells.

A short description of data set [5]: Assay 1 intramacrophage Leishmania donovani assay, THP-1 cell count (cytotoxicity readout). The format is cell-based. Conditions: human, minimum threshold 4.3, read-out: cytotoxicity against THP-1 cells, pEC50 value (converted). As to the method:
as §1

A short description of data set [6]: Assay 5 Leishmania donovani intracellular assay, cytotoxicity against THP-1 cells. The format is cell-based. The following applies: human, total number of THP-1 cells, minimum threshold 4.3, read-out: cytotoxicity against THP-1 cells, pEC50 value (converted). As to the method:
Compounds were dispensed into black 384-well assay plates (Greiner) by acoustic dispensing (LabCyte ECHO). For potency determinations, eleven-point, one in three dilution curves were generated, with a top concentration of 50 μM. THP-1 human monocytes cells were dispensed in T225 tissue culture flasks and differentiated using 30 nM of PMA, after 24 hours they were infected overnight using Leishmania donovani expressing Green Fluorescent Protein (eGFP) amastigotes in the same T225 tissue culture flasks at a multiplicity of infection of 10. Next, any remaining free amastigotes were washed away with PBS and the infected THP-1 cells were harvested by trypsinisation. The infected cells were then plated into 384-well plates containing the compounds to be tested, at 3000 cells per well in RPMI media with 2% FBS and 25 mM Sodium bicarbonate. After 96 h incubation at 37° C. in presence of 5% CO2, the plates were fixed with 4% formaldehyde for 30 minutes, washed with PBS and stained with 0.1 mg/mL of DAPI for 30 minutes and washed again with PBS. The plates were imaged on a Perkin Elmer Opera high-content imaging system using a 20× air objective with two expositions, one for DAPI stain and other for eGFP. Images were analysed using the Acapella building blocks system (Perkin Elmer). The image analysis algorithm first identified the THP-1 nuclei followed by demarcation of the cytoplasm and identification of intracellular amastigotes. This algorithm reported mean number of parasites per THP-1 cell, the percentage of infected THP-1 cells and the total number of THP-1 cells.

For the compound `O=S(=O)(Nc1ccc(F)c(-c2cn3nc(N4CCOCC4)cnc3n2)c1)N1CCCC1` [Example 10, N-(4-fluoro-3-(2-morpholinoimidazo[1,2-b][1,2,4]triazin-6-yl)phenyl)pyrrolidine-1-sulfonamide], the values for the EC50 with Trypanosoma cruzi [1], in the data set on Trypanosoma brucei and in the data set on Trypanosoma cruzi [2] were 20 µM, at least 20 µM and 10 to 39.8 µM, respectively.

In general, solubility refers to how much of the substance goes into solution per volume. Lower therefore signals little dissolved substance. For the compound `CN(C)c1ccc(-c2cnc3nc(-c4cc(NC(=O)N5CCCC5)ccc4F)cn3n2)cn1` [Example 16, N-(3-(2-(6-(dimethyl-amino)pyridin-3-yl)imidazo[1,2-b][1,2,4]triazin-6-yl)-4-fluorophenyl)pyrrolidine-1-carboxamide], the values for the EC50 in the data set with Leishmania donovani, with Trypanosoma brucei and with Trypanosoma cruzi [2] were above 50.1 µM, at least 20 µM and 0.00501 to 0.631 µM, respectively. In data set [3], this compound gave a solubility at 1 h of 1 to 6 µM (≈ 0.446 to 2.68 µg/mL).

For the compound `CN(C)S(=O)(=O)Nc1ccc(F)c(-c2cn3nc(N4CCOCC4)cnc3n2)c1` [Example 32, N-(4-fluoro-3-(2-morpholinoimidazo [1,2-b][1,2,4]triazin-6-yl)phenyl)-N′-dimethylsulfamide], the results for the EC50 with Leishmania donovani, with Trypanosoma brucei and in the data set with Trypanosoma cruzi [2] were above 50.1 µM, at least 20 µM and 10 to 39.8 µM, respectively.

As to `O=S(=O)(Nc1ccc(F)c(-c2cn3nc(N4CCOCC4)cnc3n2)c1)C1CCCC1` [Example 33, N-(4-fluoro-3-(2-morpholinoimidazo [1,2-b][1,2,4]triazin-6-yl)phenyl)cyclo-pentanesulfonamide], the EC50 with Leishmania donovani was above 50.1 µM; in the data set with Trypanosoma cruzi [2], 10 to 39.8 µM. Besides, in data set [4], the EC50 at 72 h was 0.794 to 3.16 µM.

For `CNCc1ccc(-c2cnc3nc(-c4cc(NC(=O)N5CCCC5)ccc4F)cn3n2)cc1` [Example 38, N-(4-fluoro-3-(2-(4-((methylamino)methyl)phenyl)imidazo[1,2-b] [1,2,4]triazin-6-yl)phenyl)pyrrolidine-1-carboxamide], the EC50 at 96 h was 3.98 to 15.8 µM in data set [5] and 2.51 to 10 µM in data set [6]. In data set [3], the solubility at 1 h fell in the range of 10 to 83 µM (≈ 4.46 to 37 µg/mL). Also, the EC50 with Trypanosoma cruzi [2] was 0.00501 to 0.631 µM. The EC50 at 72 h in data set [4] is 0.794 to 3.16 µM.

Turning to `O=C(Nc1ccc(F)c(-c2cn3nc(-c4ccc(CCN5CCOCC5)cc4)cnc3n2)c1)N1CCCC1` [Example 39, N-(4-fluoro-3-(2-(4-(2-morpholinoethyl)phenyl)imidazo[1,2-b][1,2,4]triazin-6-yl)phenyl) pyrrolidine-1-carboxamide], the EC50 in the data set with Leishmania donovani was above 50.1 µM; with Trypanosoma brucei it was at least 20 µM; with Trypanosoma cruzi [2] it was 0.00501 to 0.631 µM.

With `Cc1noc(C)c1S(=O)(=O)Nc1ccc(F)c(-c2cn3nc(N4CCOCC4)cnc3n2)c1` [Example 53, N-(4-fluoro-3-(2-morpholinoimidazo[1,2-b] [1,2,4]triazin-6-yl)phenyl)-3,5-dimethyl-isoxazole-4-sulfonamide], the EC50 is above 50.1 µM in the data set on Leishmania donovani, at least 20 µM with Trypanosoma brucei and 10 to 39.8 µM in the data set on Trypanosoma cruzi [2].

For the origin of these results see patent US10065965B2, “Imidazo[1,2-B][1,2,4]triazine derivatives as antiparasitic agents” (GlaxoSmithKline Intellectual Property Development Limited, priority 2015, dated 2018).
